Laboratory results published in patent publication US20230355542A1, “DRUG-ELUTING DEVICE WITH GENETIC AND CHEMICAL THERAPEUTICS FOR TREATING OR PREVENTING VASCULAR ACCESS DYSFUNCTIONS” (priority 2022, published 2023).

System: neointima formation in the venous arms of AV fistulae
Assay: systemic E2 in AV fistula model with experimentally induced chronic kidney disease
Type: in vivo
Details: systemic E2 100 ug/day, i.p; animals with experimentally induced CKD
Protocol: Systemic administration of estradiol, i.e., E2 (Molecular Weight: 272.38 Formula: […] Dissolves in absolute Ethanol) requires weekly therapeutic injections ([Study 1:10 weeks old+OVX (ovariectomy)+1 week+NX (nephrectomy)+4 weeks+AVF+4 weeks (with systemic E2 [100 ug/day, i.p])+4 weeks]) that are not applicable in real-life clinical settings. […] The nanoparticle membrane disclosed herein may locally deliver nanoparticles for the carotid artery ligation model and potentially for the AV Fistula injury site, replacing weekly injections, without the requirement for elevated systemic levels of E2. Nanoparticles may be successfully delivered and retained in layers of carotid artery tissue on a mouse model with significant enhancement.

## C[C@]12CC[C@@H]3c4ccc(O)cc4CC[C@H]3[C@@H]1CC[C@@H]2O [estrogen, estradiol]
  effect on neointima formation: inhibits neointima formation
